Assay results as given in US6274715A, “Tricyclic erythromycin derivatives” (priority 1997, dated 2001).
Converted amounts (≈) assume the structure as drawn.

Tests used:
Assay type in all cases: cell-based
[1] = tested on: STAPHYLOCOCCUS AUREUS ATCC 6538P; assay: In vitro antibacterial activity, MIC, BHI agar dilution; conditions: S. aureus ATCC 6538P, 35-37° C., 20 to 24 hours, unit assumed
[2] = tested on: STAPHYLOCOCCUS AUREUS A5177; assay: as above; conditions: S. aureus A5177, unit assumed
[3] = tested on: STAPHYLOCOCCUS AUREUS A-5278; assay: as above; conditions: S. aureus A-5278, unit assumed
[4] = tested on: STAPHYLOCOCCUS AUREUS CMX 642A; assay: as above; conditions: S. aureus CMX 642A, unit assumed
[5] = tested on: STAPHYLOCOCCUS AUREUS NCTC10649M; assay: as above; conditions: S. aureus NCTC10649M, unit assumed
[6] = tested on: STAPHYLOCOCCUS AUREUS CMX 553; assay: as above; conditions: S. aureus CMX 553, unit assumed
[7] = tested on: STAPHYLOCOCCUS AUREUS 1775; assay: as above; conditions: S. aureus 1775, unit assumed
[8] = tested on: STAPHYLOCOCCUS EPIDERMIDIS 3519; conditions: S. epidermidis 3519; BHI agar; unit assumed
EN[…] ATCC 8043 = assay: In vitro antibacterial activity, MIC, BHI agar dilution; conditions: E. faecium ATCC 8043, unit assumed
Summary of the method: (§1)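 BHI agar dilution, 12 plates; inoculum 1:100 (1:10 slow-growing strains), Steers replicator; 35-37° C, 20-24 h. MIC = lowest conc. with no growth/slight haze/sparse colonies vs growth control, visual read. Erythromycin A reference plate.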

M[…] ATCC 4698 = assay: as above; conditions: M. luteus ATCC 4698, unit assumed
Summary of the method: as §1

M[…] ATCC 9341 = assay: as above; conditions: M. luteus ATCC 9341, unit assumed
Summary of the method: as §1

STR[…] 508 = assay: as above; conditions: S. agalactiae CMX 508, unit assumed
Summary of the method: as §1

[9] = tested on: STREPTOCOCCUS BOVIS A-5169; assay: as above; conditions: S. bovis A-5169, unit assumed
[10] = tested on: STREPTOCOCCUS PYOGENES EES61; assay: as above; conditions: S. pyogenes EES61, unit assumed
[11] = tested on: STREPTOCOCCUS PYOGENES 930; assay: as above; conditions: S. pyogenes 930, unit assumed
[12] = tested on: STREPTOCOCCUS PYOGENES PIU 2548; assay: as above; conditions: S. pyogenes PIU 2548, unit assumed
ESCHERICHIA COLI JUHL = conditions: E. coli JUHL; BHI agar; unit assumed
ESCHERICHIA COLI SS = assay: In vitro antibacterial activity, MIC, BHI agar dilution; conditions: E. coli SS, unit assumed
ESCHERICHIA COLI DC-2 = assay: as above; conditions: E. coli DC-2, unit assumed
ESCHERICHIA COLI H560 = assay: as above; conditions: E. coli H560, unit assumed
ESCHERICHIA COLI KNK 437 = conditions: E. coli KNK 437; BHI agar; unit assumed
[13] = tested on: ENTEROBACTER AEROGENES ATCC 13048; assay: In vitro antibacterial activity, MIC, BHI agar dilution; conditions: E. aerogenes ATCC 13048, unit assumed
[14] = tested on: KLEBSIELLA PNEUMONIAE ATCC 8045; assay: as above; conditions: K. pneumoniae ATCC 8045, unit assumed
[15] = tested on: PROVIDENCIA STUARTII CMX 640; conditions: P. stuartii CMX 640; BHI agar; unit assumed
[16] = tested on: PSEUDOMONAS AERUGINOSA BMH10; assay: In vitro antibacterial activity, MIC, BHI agar dilution; conditions: P. aeruginosa BMH10, unit assumed
[17] = tested on: PSEUDOMONAS AERUGINOSA 5007; assay: as above; conditions: P. aeruginosa 5007, unit assumed
[18] = tested on: PSEUDOMONAS AERUGINOSA K799/WT; assay: as above; conditions: P. aeruginosa K799/WT, unit assumed
[19] = tested on: PSEUDOMONAS AERUGINOSA K799/61; assay: as above; conditions: P. aeruginosa K799/61, unit assumed
PSEUDOMONAS CEPACIA 296I = assay: as above; conditions: P. cepacia 296I, unit assumed
[20] = tested on: PSEUDOMONAS AERUGINOSA DPHD-5263; assay: as above; conditions: P. aeruginosa DPHD-5263, unit assumed
[21] = tested on: PSEUDOMONAS AERUGINOSA DPHD-2862; assay: as above; conditions: P. aeruginosa DPHD-2862, unit assumed
CANDIDA ALBICANS CCH 442 = assay: as above; conditions: C. albicans CCH 442, unit assumed
[22] = tested on: MYCOBACTERIUM SMEGMATIS ATCC 114; assay: as above; conditions: M. smegmatis ATCC 114, unit assumed

| SMILES | MIC [1] | MIC [2] | MIC [3] | MIC [4] | MIC [5] | MIC [6] | MIC [7] | MIC [8] | MIC (EN[…] ATCC 8043) | MIC (M[…] ATCC 4698) | MIC (M[…] ATCC 9341) | MIC (STR[…] 508) | MIC [9] | MIC [10] | MIC [11] | MIC [12] | MIC (ESCHERICHIA COLI JUHL) | MIC (ESCHERICHIA COLI SS) | MIC (ESCHERICHIA COLI DC-2) | MIC (ESCHERICHIA COLI H560) | also measured |
| --- | --- | --- | --- | --- | --- | --- | --- | --- | --- | --- | --- | --- | --- | --- | --- | --- | --- | --- | --- | --- | --- |
| CC[C@H]1OC(=O)[C@H](C)C(=O)[C@H](C)[C@@H](O[C@@H]2O[C@H](C)C[C@H](N(C)C)[C@H]2O)[C@](C)(OC)C[C@@H](C)C2=NCC(COC(=O)c3ccc4ccccc4n3)N3C(=O)O[C@@]1(C)[C@H]3[C@H]2C (stereo partly drawn) [Example 142] | 0.2 µg/mL (≈ 0.243 µM) | 0.2 µg/mL (≈ 0.243 µM) | > 100 µg/mL | 0.2 µg/mL (≈ 0.243 µM) | 0.2 µg/mL (≈ 0.243 µM) | 0.2 µg/mL (≈ 0.243 µM) | > 100 µg/mL | 0.2 µg/mL (≈ 0.243 µM) | 0.1 µg/mL (≈ 0.122 µM) | 0.1 µg/mL (≈ 0.122 µM) | 0.02 µg/mL (≈ 0.0243 µM) | 0.01 µg/mL (≈ 0.0122 µM) | 0.01 µg/mL (≈ 0.0122 µM) | 0.01 µg/mL (≈ 0.0122 µM) | > 100 µg/mL | 0.39 µg/mL (≈ 0.474 µM) | 50 µg/mL (≈ 60.8 µM) | 1.56 µg/mL (≈ 1.9 µM) | 25 µg/mL (≈ 30.4 µM) | 25 µg/mL (≈ 30.4 µM) | MIC (ESCHERICHIA COLI KNK 437): 100 µg/mL (≈ 122 µM); MIC [13]: > 100 µg/mL; MIC [14]: > 100 µg/mL; MIC [15]: > 100 µg/mL; MIC [16]: > 100 µg/mL; MIC [17]: > 100 µg/mL; MIC [18]: > 100 µg/mL; MIC [19]: 1.56 µg/mL (≈ 1.9 µM); MIC (PSEUDOMONAS CEPACIA 296I): > 100 µg/mL; MIC [20]: > 100 µg/mL; MIC [21]: > 100 µg/mL; MIC (CANDIDA ALBICANS CCH 442): > 100 µg/mL; MIC [22]: 1.56 µg/mL (≈ 1.9 µM) |
| CC[C@H]1OC(=O)[C@H](C)C(=O)[C@H](C)[C@@H](O[C@@H]2O[C@H](C)C[C@H](N(C)C)[C@H]2O)[C@](C)(OC)C[C@@H](C)C2=NCC(COC(=O)c3cc4ccccc4n3C)N3C(=O)O[C@@]1(C)[C@H]3[C@H]2C (stereo partly drawn) [Example 143] | 0.1 µg/mL (≈ 0.121 µM) | 0.2 µg/mL (≈ 0.242 µM) | 50 µg/mL (≈ 60.6 µM) | 0.2 µg/mL (≈ 0.242 µM) | 0.2 µg/mL (≈ 0.242 µM) | 0.2 µg/mL (≈ 0.242 µM) | 50 µg/mL (≈ 60.6 µM) | 0.2 µg/mL (≈ 0.242 µM) | 0.02 µg/mL (≈ 0.0242 µM) | 0.2 µg/mL (≈ 0.242 µM) | 0.01 µg/mL (≈ 0.0121 µM) | 0.02 µg/mL (≈ 0.0242 µM) | 0.01 µg/mL (≈ 0.0121 µM) | 0.02 µg/mL (≈ 0.0242 µM) | 50 µg/mL (≈ 60.6 µM) | 0.39 µg/mL (≈ 0.473 µM) | 50 µg/mL (≈ 60.6 µM) | 0.78 µg/mL (≈ 0.945 µM) | 50 µg/mL (≈ 60.6 µM) | 25 µg/mL (≈ 30.3 µM) | MIC (ESCHERICHIA COLI KNK 437): 50 µg/mL (≈ 60.6 µM); MIC [13]: > 100 µg/mL; MIC [14]: > 100 µg/mL; MIC [15]: > 100 µg/mL; MIC [16]: > 100 µg/mL; MIC [17]: > 100 µg/mL; MIC [18]: > 100 µg/mL; MIC [19]: 1.56 µg/mL (≈ 1.89 µM); MIC (PSEUDOMONAS CEPACIA 296I): 50 µg/mL (≈ 60.6 µM); MIC [20]: > 100 µg/mL; MIC [21]: > 100 µg/mL; MIC (CANDIDA ALBICANS CCH 442): 100 µg/mL (≈ 121 µM); MIC [22]: 0.2 µg/mL (≈ 0.242 µM) |
| CC[C@H]1OC(=O)[C@H](C)C(=O)[C@H](C)[C@@H](O[C@@H]2O[C@H](C)C[C@H](N(C)C)[C@H]2O)[C@](C)(OC)C[C@@H](C)C2=NCC(COC(=O)c3cccc4[nH]ccc34)N3C(=O)O[C@@]1(C)[C@H]3[C@H]2C (stereo partly drawn) [Example 144] | 0.1 µg/mL (≈ 0.123 µM) | 0.1 µg/mL (≈ 0.123 µM) | > 100 µg/mL | 0.1 µg/mL (≈ 0.123 µM) | 0.1 µg/mL (≈ 0.123 µM) | 0.1 µg/mL (≈ 0.123 µM) | > 100 µg/mL | 0.1 µg/mL (≈ 0.123 µM) | 0.1 µg/mL (≈ 0.123 µM) | 0.1 µg/mL (≈ 0.123 µM) | 0.01 µg/mL (≈ 0.0123 µM) | ≤ 0.005 µg/mL | ≤ 0.005 µg/mL | ≤ 0.005 µg/mL | 100 µg/mL (≈ 123 µM) | 0.39 µg/mL (≈ 0.481 µM) | 50 µg/mL (≈ 61.7 µM) | 0.78 µg/mL (≈ 0.962 µM) | 50 µg/mL (≈ 61.7 µM) | 50 µg/mL (≈ 61.7 µM) | MIC (ESCHERICHIA COLI KNK 437): 50 µg/mL (≈ 61.7 µM); MIC [13]: 100 µg/mL (≈ 123 µM); MIC [14]: 100 µg/mL (≈ 123 µM); MIC [15]: > 100 µg/mL; MIC [16]: > 100 µg/mL; MIC [17]: > 100 µg/mL; MIC [18]: > 100 µg/mL; MIC [19]: 0.78 µg/mL (≈ 0.962 µM); MIC (PSEUDOMONAS CEPACIA 296I): 50 µg/mL (≈ 61.7 µM); MIC [20]: > 100 µg/mL; MIC [21]: > 100 µg/mL; MIC (CANDIDA ALBICANS CCH 442): > 100 µg/mL; MIC [22]: 1.56 µg/mL (≈ 1.92 µM) |
